Test results published in patent publication US9561201B2, “Therapeutic compounds” (Fibrotech Therapeutics Pty Ltd, priority 2006, dated 2017).

Legend:
[1] = tested on: Neonatal rat cardiac fibroblasts (NCFs); experiment: NCF TGF-β collagen synthesis, 3H-proline incorporation (Example 6); assay type: cell-based
Method: Neonatal SD rat cardiac myocytes (NCMs) and fibroblasts (NCFs) were isolated from one-day-old pups with enzymatic digestion as described in detail previously. NCFs were seeded and maintained in high-glucose (25 mmol/L) Dulbecco's modified Eagle's medium (DMEM) (Invitrogen Mount Waverley, Vic, Australia) in the presence of 1% antibiotic/antimycotic (AB/AM) and 10% fetal bovine serum (FBS) (JRH biosciences, Kansas, USA). NCFs were used at passage 2 [31]. Purified NCMs were seeded (1000 cells/mm^2) in 6-well plates and then maintained in serum-free DMEM (Invitrogen, NY, USA) supplemented with insulin and transferrin as described previously (4). Bromodeoxyuridine was included for the first 3 days. 50 mmol/L KCl was added to the medium to prevent spontaneous contraction characteristic of the plated NCMs.
NCFs collagen synthesis assays were performed as described previously. Briefly, NCFs plated at a density of 50,000 cells/well in 12-well plate and incubated overnight. NCFs were then serum starved for 24 hours in high-glucose DMEM. […]
For collagen synthesis, 1 μCi of [^3H]-Proline was added to each well and incubated for further 48 hours before harvest. Cells were harvested by precipitation with 10% TCA on ice for 30 min, before solubilisation with 0.75 mL of 1 mol/L NaOH overnight at 4° C. The samples were then neutralized with 1 mol/L HCl and ^3H level were counted with 10 ml scintillation fluid on a beta-counter to determine [^3H]-proline incorporation.

[2] = tested on: mesangial cell line (1097); experiment: TGF-β induced 3H-proline incorporation in cultured rat mesangial cells (Example 2); assay type: cell-based, Sprague-Dawley rats; details: renal mesangial cells, from 30 to 100 μM
Method: The anti-fibrotic effects of 3-methoxy-4-propargyloxybenzaldehyde (FT011) in a renal cell line were tested by measuring proline incorporation after transforming growth factor-β stimulation.
A well-characterized cloned mesangial cell line (1097) isolated from Sprague-Dawley rats was used between passages 30 and 40. Cells were cultured in Dulbecco's Modified Eagle's (DME) medium (Invitrogen, Grand Island, N.Y.) with heat-inactivated fetal bovine serum (FBS), 100 u/mL penicillin and 100 ug/mL streptomycin in a humidified 5% CO2 atmosphere at 37° C.
To compare the effects of tranilast and FT011 on collagen production in vitro, incorporation of tritiated proline was used. Mesangial cells were plated at low density into 24-well culture plates in DME/5% FBS and allowed to adhere overnight. The subconfluent cells were starved overnight in DME/0.5% FBS and […] L-ascorbic acid (Sigma-Aldrich). Tranilast or FT011 was then added to the wells, followed 4 hours later by L-[2,3,4,5-^3H]-proline, 0.5 μCi/well (Amersham) and TGF-β1, 5 ng/ml (R & D systems). Mesangial cells were harvested 48 hours post-stimulation, washed three times with ice cold PBS, and incubated with 10% trichloroacetic acid (TCA) for 30 minutes on ice, followed by a wash in ice cold 10% TCA. Cells were then solubilised in […] 1M NaOH. […]

rat mesangial cell line = experiment: Effect on mesangial cell appearance (visual monitoring during proline assay); assay type: cell-based; details: @ 100 μM
[3] = tested on: STZ diabetic (mRen-2)27 rats; experiment: Diabetic (mRen-2)27 rats treated with FT011; assay type: in vivo; details: for GFR: 16 weeks
Method: Forty six-week old female, heterozygous (mRen-2)27 rats (St. Vincent's Hospital Animal House, Melbourne, Australia) were assigned to receive either 55 mg/kg of STZ (Sigma, St. Louis, USA) diluted in 0.1 M citrate buffer, pH 4.5 or citrate buffer alone (non-diabetic) by tail vein injection following an overnight fast. […] Treatment commenced within 24 hours of STZ or citrate buffer injection.
Rats were individually housed in metabolic cages at 4, 8 12 and 16 weeks, habituated for 2 to 3 hours, and urine collected over 24 hours. […] After 24 hours in metabolic cages, an aliquot of urine (5 mL) was collected from the 24-hour urine sample and stored at −70° C. for subsequent analysis of albumin by radio-immunoassay, as previously performed [36]. Prior to sacrifice, the glomerular filtration rate (GFR) was determined by injecting a single shot of 99Tc-DTPA into the tail vein and sampling the blood after 43 minutes, as previously described [37].
Rats were anaesthetised (Nembutal 60 mg/kg body wt i.p. Boehringer-Ingelheim, Australia). […] Kidneys were excised, decapsulated, sliced transversely, half of the kidney snap frozen for tissue RNA assay and other half immersed fix with formalin and paraffin-embedded for subsequent light microscopic evaluation.
Histopathological changes in kidney and heart were assessed in a masked protocol.
In 4 μm kidney sections stained with PAS, 150 to 200 glomeruli from rats were examined in a masked protocol. […] A glomerulosclerotic index (GSI) was then calculated using the Formula (4):
To assess the tubulointerstitial fibrosis in kidney sections were stained with modified Masson's trichrome. Briefly, 5 random non-overlapping fields from 10 rats per group were captured and digitised using a BX50 microscope attached to a Fujix HC5000 digital camera. Digital images were then loaded onto a Pentium III IBM computer as described as above. An area of red in heart and blue in kidney on picrosirius red and trichrome-stained section, respectively, were selected for its color range and the proportional area of tissue with this range of color was then quantified. Calculation of the proportional area stained red and blue (matrix) was then determined using image analysis (AIS, Analytical imaging Station Version 6.0, Ontario, Canada) [37, 39].

[4] = Pilot study (toxicity assessment), 2 weeks oral gavage; assay type: in vivo, Sprague-Dawley (SD) rats; details: for ALT / Body weight / Plasma Creatinine / Plasma Urate: 2 weeks
Method: A total of twenty male Sprague-Dawley (SD) rats weighing 200-250 g were randomised to either FT011 (Fibrotech Therapeutics Pty Ltd, Melbourne, Australia) or Tranilast (Pharm Chemical, Shanghai Lansheng Corporation, China) at the dose of 50 mg, 100 mg, 200 mg and 400 mg/kg/day by gavage twice daily (n=2-3 per group). A control group of animals were gavaged with vehicle (1% carboxy methyl cellulose). The study was conducted for 2 weeks. Animals were bled daily at one, four, and eight hours after oral gavage to measure the plasma concentration. Serum was also collected to assess renal and liver function at the end of the study (plasma creatine and urate, ALT and bilirubin). Rats were individually housed in metabolic cages at the end of the study, habituated for 2 to 3 hours, and urine collected over 24 hours. Animals continued to have free access to tap water and standard laboratory chow during this period. The biochemistry tests performed at the department of pathology, St Vincent's hospital. Major organs including lung, heart, liver, spleen and kidney were harvested and immersed fix with 10% neutral buffered formalin and then embedded paraffin for subsequent light microscope examination.

[5] = diabetic rats, 100 mg/kg bid gavage

C#CCOc1ccc(/C=C/C(=O)Nc2ccccc2C(=O)O)cc1OC [Analogue 11]
NCF TGF-β Collagen Synthesis ([1]; @ 30 μM): 32% @ 30 μM | NCF TGF-β Collagen Synthesis ([1]; @ 100 μM): 87% @ 100 μM | proline incorporation after TGF-β stimulation [2]: significantly reduce | Effect on mesangial cell appearance (rat mesangial cell line): stress @ | GFR ([3]; diabetic rats + FT011 100 mg/kg bid gavage): 5.90 ± 0.20 mL/min | extent of glomerulosclerosis (PAS-stained sections) [3, 5]: reduction | rise in albuminuria [3, 5]: significantly attenuated | tubular (tubulointerstitial) fibrosis (trichrome-stained sections) [3, 5]: reduction | GFR ([3]; non-diabetic control rats + FT011 100 mg/kg bid gavage): 3.63 ± 0.08 mL/min | ALT ([4]; 50 mg/kg/day gavage): 41 ± 1 | Body weight ([4]; 50 mg/kg/day gavage): 313 ± 24 Gram | Plasma Creatinine ([4]; 50 mg/kg/day gavage): 38 ± 2 µmol/L | Plasma Urate ([4]; 50 mg/kg/day gavage): <0.09 mmol/L | ALT ([4]; 100 mg/kg/day gavage): 44 ± 2 | Body weight ([4]; 100 mg/kg/day gavage): 308 ± 22 Gram | Plasma Creatinine ([4]; 100 mg/kg/day gavage): 39 ± 0.5 µmol/L | Plasma Urate ([4]; 100 mg/kg/day gavage): <0.09 mmol/L | ALT ([4]; 200 mg/kg/day gavage): 36 ± 0.5 | Body weight ([4]; 200 mg/kg/day gavage): 301 ± 8 Gram | Plasma Creatinine ([4]; 200 mg/kg/day gavage): 37 ± 0.6 µmol/L | Plasma Urate ([4]; 200 mg/kg/day gavage): <0.09 mmol/L | ALT ([4]; 400 mg/kg/day gavage): 32 ± 4.4 | Body weight ([4]; 400 mg/kg/day gavage): 264 ± 29 Gram | Plasma Creatinine ([4]; 400 mg/kg/day gavage): 36 ± 3.9 µmol/L | Plasma Urate ([4]; 400 mg/kg/day gavage): <0.09 mmol/L | level of FT011 measured in plasma ([4]; following gavage, 50-400 mg/kg/day): increased in a dose dependent manner | level of FT011 measured in urine ([4]; rats treated with FT011, 24 h urine): significant level
